Test results taken from patent US20240174644A1, “QUINOXALINE UREA INHIBITORS OF IKK-BETA AND NF-KB” (BOARD OF REGENTS OF THE UNIVERSITY OF NEBRASKA, priority 2021, published 2024).

Assays:
[1] = tested on: caspase 3/7; test: Caspase 3/7 activation assay in MM1S cells (Apo-One homogeneous caspase 3/7 assay); assay type: cell-based; settings: inhibitor 10 μM, 24 h, fold change relative to the DMSO control
Procedure: MM1 S cells were seeded (25K cells/well) and inhibitors (10 μM) were added to these cells in triplicate. The plates were incubated for 24 h. Under multiplexing conditions, the cell viability using Alamar Blue assay and caspase activity using Apo-One homogeneous caspase 3/7 assay was determined. Data represented as fold change relative to the DMSO control.

[2] = tested on: MM1S cells; test: Growth inhibition assay in MM1S cells (Presto blue); assay type: cell-based; settings: Homo sapiens, MM1.S, 120 h, MM1S cells (multiple myeloma model), 5-day incubation, triplicate
Procedure: MM1S cells were seeded (20K cells/well) and increasing concentrations of the inhibitors were added to these cells in triplicate. The plates were incubated for 5 -days after which Presto blue (544/590 ex/em wavelengths) was added and plates read after additional 15 min incubation at 37° C. The IC50 values were derived by curve fitting the data.

Row | Compound | Caspase 3/7 activation [1] [fold change] | IC50 [2] [µM]
1 | Cn1ccc(-c2cnc3ccc(NC(=O)Nc4ccc(F)c(Br)c4)cc3n2)c1 [Compound 7, 1-(3-Bromo-4-fluorophenyl)-3-(3-(1-methyl-1 H-pyrrol-3-yl)quinoxalin-6-yl)urea] | 1.51 ± 0.01 | 2.85 ± 0.09
2 | Cn1cc(-c2cnc3ccc(NC(=O)Nc4ccc(F)c(C(F)(F)F)c4F)cc3n2)cn1 [Compound 9] | 9.79 ± 2.47 | 0.75 ± 0.01
3 | Cn1cc(-c2ccc3ccc(NC(=O)Nc4ccc(F)c(Br)c4)cc3n2)cn1 [Compound 5] |  | 5.56 ± 0.66
4 | Cn1cc(-c2cnc3ccc(NC(=O)Nc4ccc(F)c(Br)c4)cc3n2)cn1 [Compound 1] |  | 5.43 ± 0.16
5 | Cn1cc(-c2cnc3ccc(NC(=O)Nc4ccc(F)c(Br)c4)cc3c2)cn1 [Compound 6, 1-(3-Bromo-4-fluorophenyl)-3-(3-(1-methyl-1H-pyrazol-4-yl)quinolin-6-yl)urea] | 1.36 ± 0.04 | 10.6 ± 0.4
6 | Cn1cc(-c2cnc3ccc(NC(=O)Nc4ccc(F)cc4)cc3n2)cn1 [Compound 3, 1-(4-fluorophenyl)-3-(3-(1-methyl-1H-pyrazol-4-yl)quinoxalin-6-yl)urea] | 1.03 ± 0.06 | > 20
7 | Cn1cc(-c2cnc3ccc(NC(=O)Nc4ccc(F)c(C(F)(F)F)c4)cc3n2)cn1 [Compound 8] | 1.96 ± 0.05 | 5.38 ± 0.13
8 | Cn1cc(-c2cnc3ccc(NC(=O)Nc4cccc(Br)c4)cc3n2)cn1 [Compound 2] | 1.06 ± 0.03 | 2.83 ± 0.09
9 | Cn1cc(-c2cnc3ccc(NC(=O)Cc4ccc(F)c(Br)c4)cc3n2)cn1 [Compound 4] |  | 4.67 ± 0.09
